Reference: article PMC12567398, “New Assay Systems to Characterize the Broad-Spectrum Antiherpesviral and Non-Herpesviral Activity of Cyclin-Dependent Kinase (CDK) 8 Inhibitors” (Pharmaceuticals, 2025)
Like-named read-outs stand apart in the source and are kept apart here.

How the values were obtained:
[1] = system: Epstein–Barr virus P3HR-1; assay: EBV lytic assay in TPA-induced P3HR-1 cells, qPCR; type: cell-based; details: Table S1, read-out: antiviral EC50, EBV
[2] = Neutral Red uptake cell viability assay, Vero; details: African green monkey, CC50, Vero (Fig 4F)
HSV-1 = system: HSV-1; set-up: method as in ref 35, 38 (a number printed in a supplementary file, which may have a reference list of its own: not looked up in the article's list); details: Table S1; read-out: antiviral EC50, HSV-1; cited from earlier work
JCPyV = system: JCPyV; set-up: method as in ref 35, 38 (a number printed in a supplementary file, which may have a reference list of its own: not looked up in the article's list); details: Table S1; read-out: antiviral EC50, JCPyV; cited from earlier work
HAdV = system: HAdV; set-up: method as in ref 35, 38 (a number printed in a supplementary file, which may have a reference list of its own: not looked up in the article's list); details: Table S1; read-out: antiviral EC50, HAdV; cited from earlier work
EHV-1 = assay: EHV-1-specific qPCR of virus release into culture medium; type: cell-based, equine herpesvirus 1
SARS-CoV-2 d6-YFP [3] = details: for CDK8 inhibitor sensitivity of SARS-CoV-2 in Caco-2 cells: in words
vaccinia virus VV IHD-5 = assay: microbe, parasite or virus in culture; type: cell-based; details: read-out: antiviral EC50, VV
ChCMV = system: ChCMV; set-up: method as in ref 35, 38 (a number printed in a supplementary file, which may have a reference list of its own: not looked up in the article's list); details: Table S1; read-out: antiviral EC50, ChCMV; cited from earlier work
EHV-1-GFP = EHV-1-GFP antiviral assay, GFP fluorometry; type: cell-based, equine herpesvirus 1
[4] = Neutral Red uptake cell viability assay, MEF; details: mouse
MCMV = system: MCMV; set-up: method as in ref 35, 38 (a number printed in a supplementary file, which may have a reference list of its own: not looked up in the article's list); details: Table S1; read-out: antiviral EC50, MCMV; cited from earlier work
[5] = Neutral Red uptake / Alamar Blue cell viability assay, 293T; details: human
in vitro = details: human
MHV-68-Luc = MHV-68-Luc luciferase reporter assay; type: cell-based, murine herpesvirus 68
HHV-6A = system: HHV-6A; set-up: method as in ref 35 (a number printed in a supplementary file, which may have a reference list of its own: not looked up in the article's list); details: Table S1; J-Jhan cells; read-out: antiviral EC50, HHV-6A (J-Jhan); cited from earlier work
RhCMV = system: RhCMV; set-up: method as in ref 35, 38 (a number printed in a supplementary file, which may have a reference list of its own: not looked up in the article's list); details: Table S1; read-out: antiviral EC50, RhCMV; cited from earlier work
[6] = Neutral Red uptake cell viability assay, Caco-2; details: human
VZV = system: VZV; set-up: method as in ref 35, 38 (a number printed in a supplementary file, which may have a reference list of its own: not looked up in the article's list); details: Table S1; read-out: antiviral EC50, VZV; cited from earlier work
HCMV = system: HCMV; set-up: method as in ref 35, 38 (a number printed in a supplementary file, which may have a reference list of its own: not looked up in the article's list); details: Table S1; read-out: antiviral EC50, HCMV; cited from earlier work
HHV-6A-GFP = assay: HHV-6A plaque reduction assay in HFFs
KSHV = system: KSHV; set-up: method as in ref 35, 38 (a number printed in a supplementary file, which may have a reference list of its own: not looked up in the article's list); details: Table S1; read-out: antiviral EC50, KSHV; cited from earlier work
[7] = Neutral Red uptake cell viability assay, HFF; details: human
[8] = Neutral Red uptake cell viability assay, COS-7; details: African green monkey
SARS-CoV-2 d6-YFP [9] = assay: microbe, parasite or virus in culture
RCMV = system: RCMV; set-up: method as in ref 35, 38 (a number printed in a supplementary file, which may have a reference list of its own: not looked up in the article's list); details: Table S1; read-out: antiviral EC50, RCMV; cited from earlier work
HCMV TB40-YFP = assay: HCMV time-of-addition reporter assay in HFFs, TB40-YFP
GPCMV = system: GPCMV; set-up: method as in ref 35, 38 (a number printed in a supplementary file, which may have a reference list of its own: not looked up in the article's list); details: Table S1; read-out: antiviral EC50, GPCMV; cited from earlier work
HCMV Merlin-GFP = assay: HCMV time-of-addition reporter assay in HFFs, Merlin-GFP
HCMV AD169-GFP = assay: HCMV time-of-addition reporter assay in HFFs, AD169-GFP

## CN(C)C(=O)Cn1cc(-c2ccc(-c3cncc4ccccc34)cc2)cn1 [BI-1347]
[1]; human gammaherpesvirus 4, P3HR-1
  EC50: 5500 ± 4200 nM
[2]
  CC50 at 7 d: > 100000 nM
HSV-1
  EC50: > 50000 nM
JCPyV
  EC50: 700 ± 1600 nM
HAdV
  EC50: 50 ± 100 nM
EHV-1; EHV-1, qPCR / COS-7, read-out: EC50
  EC50: < 3 nM
EHV-1; Equus caballus
  EC50: 20 ± 50 nM
EHV-1; Equus caballus, read-out: antiviral EC50, EHV-1 (HFF)
  EC50: 30 ± 30 nM
SARS-CoV-2 d6-YFP [3]
  CDK8 inhibitor sensitivity of SARS-CoV-2 in Caco-2 cells: low level of sensitivity
Vaccinia virus VV IHD-5; Orthopoxvirus vaccinia
  EC50: > 50000 nM
ChCMV
  EC50: 10 ± 20 nM
EHV-1-GFP; COS-7
  EC50: 80 nM
[4]
  CC50 at 7 d: > 100000 nM
MCMV
  EC50: 20 ± 10 nM
[5]
  CC50 at 2 d: 93000 ± 5000 nM
In vitro
  CC50: > 100000 nM
MHV-68-Luc; Murine herpesvirus, COS-7, read-out: antiviral EC50, MHV-68 (COS-7), Table S1, COS-7
  EC50: 0.1 ± 0.1 nM
MHV-68-Luc; Murine herpesvirus, Vero, read-out: antiviral EC50, MHV-68 (Vero), Table S1, Vero
  EC50: 0.5 ± 0.03 nM
MHV-68-Luc; Murine herpesvirus, read-out: antiviral EC50, MHV-68 (HFF), Table S1, HFF
  EC50: 40 ± 20 nM
MHV-68-Luc; Murine herpesvirus, read-out: antiviral EC50, MHV-68 (MEF), Table S1, MEF
  EC50: 6 ± 2 nM
HHV-6A
  EC50: > 50000 nM
RhCMV
  EC50: 0.4 ± 0.5 nM
[6]
  CC50 at 3 d: > 100000 nM
VZV
  EC50: 26000 ± 10000 nM
HCMV
  EC50: 0.9 ± 0.7 nM
HHV-6A-GFP; Human betaherpesvirus 6A, read-out: Antiviral mean EC50 based on plaque assay measurements
  EC50: 200 ± 200 nM
HHV-6A-GFP; Human betaherpesvirus 6A, read-out: antiviral EC50, HHV-6A (HFF)
  EC50: 300 ± 200 nM
KSHV
  EC50: 300 ± 600 nM
[7]; CC50, HFF, listed with qPCR / HFF (Fig 1E)
  CC50: > 50000 nM
[7]; mean CC50, HFF, HHV-6A assay conditions (Fig 2D)
  CC50: > 100000 nM
[8]; CC50, COS-7 (Fig 4F)
  CC50 at 4 d: > 100000 nM
[8]; CC50, COS-7, listed with GFP / COS-7 (Fig 1E)
  CC50 at 4 d: > 50000 nM
[8]; CC50, COS-7, listed with qPCR / COS-7 (Fig 1E)
  CC50 at 4 d: > 50000 nM
SARS-CoV-2 d6-YFP [9]; Severe acute respiratory syndrome coronavirus 2, Caco-2, 30 h, read-out: Antiviral mean EC50 based on YFP measurements
  EC50: ≥ 15400 nM
SARS-CoV-2 d6-YFP [9]; Severe acute respiratory syndrome coronavirus 2, Caco-2, read-out: antiviral EC50, SARS-CoV-2
  EC50: 22800 ± 3200 nM
RCMV
  EC50: 2 ± 4 nM

## Cn1ncc2cc(-c3cnc(N)c(Cl)c3N3CCC4(CCNC4=O)CC3)ccc21 [CCT-251921]
[1]
  EC50: 2500 ± 1000 nM
HSV-1
  EC50: > 50000 nM
293T-tdTom-Luc cells
  CC50: 95300 ± 6600 nM
JCPyV
  EC50: 3700 ± 3000 nM
HAdV
  EC50: 30 ± 30 nM
EHV-1; EHV-1, qPCR / HFF, read-out: EC50
  EC50: 800 nM
SARS-CoV-2 d6-YFP [3]
  CDK8 inhibitor sensitivity of SARS-CoV-2 in Caco-2 cells: lack of CDK8 inhibitor sensitivity
SARS-CoV-2 d6-YFP [3]; read-out: Antiviral mean EC50 based on YFP measurements, SARS-CoV-2 d6-YFP, Caco-2, […]
  EC50: ≥ 15400 nM
SARS-CoV-2 d6-YFP [3]; read-out: antiviral EC50, SARS-CoV-2, Table S1
  EC50: 62400 ± 18500 nM
Vaccinia virus VV IHD-5
  EC50: > 50000 nM
MEFs
  CC50: > 100000 nM
ChCMV
  EC50: 30 ± 20 nM
EHV-1-GFP; EHV-1, GFP / COS-7, read-out: EC50
  EC50: 100 nM
HCMV TB40-YFP; read-out: TB40-YFP EC50, drug addition 0 d p.i., readout 7 d p.i.
  EC50: 8.7 ± 5 nM
HCMV TB40-YFP; read-out: TB40-YFP EC50, drug addition 1 d p.i., readout 7 d p.i.
  EC50: 26 ± 4 nM
HCMV TB40-YFP; read-out: TB40-YFP EC50, drug addition 2 d p.i., readout 7 d p.i.
  EC50: > 50 nM
HCMV TB40-YFP; read-out: TB40-YFP EC50, drug addition 3 d p.i., readout 7 d p.i.
  EC50: > 50 nM
HCMV TB40-YFP; read-out: TB40-YFP EC50, drug addition 4 d p.i., readout 7 d p.i.
  EC50: > 50 nM
GPCMV
  EC50: 50 ± 80 nM
P3HR-1 cells
  CC50: > 100000 nM
MCMV
  EC50: > 40 nM
HCMV Merlin-GFP; read-out: Merlin-GFP EC50, drug addition 0 d p.i., readout 7 d p.i.
  EC50: 0.7 ± 1.3 nM
HCMV Merlin-GFP; read-out: Merlin-GFP EC50, drug addition 1 d p.i., readout 7 d p.i.
  EC50: 13 ± 8 nM
HCMV Merlin-GFP; read-out: Merlin-GFP EC50, drug addition 2 d p.i., readout 7 d p.i.
  EC50: 3.4 ± 6.8 nM
HCMV Merlin-GFP; read-out: Merlin-GFP EC50, drug addition 4 d p.i., readout 7 d p.i.
  EC50: 5.9 ± 4.9 nM
MHV-68-Luc; Table S1, COS-7, read-out: antiviral EC50, MHV-68 (COS-7)
  EC50: 0.5 ± 0.9 nM
MHV-68-Luc; Table S1, HFF, read-out: antiviral EC50, MHV-68 (HFF)
  EC50: 500 ± 300 nM
MHV-68-Luc; Table S1, MEF, read-out: antiviral EC50, MHV-68 (MEF)
  EC50: 10 ± 9 nM
MHV-68-Luc; Table S1, Vero, read-out: antiviral EC50, MHV-68 (Vero)
  EC50: 2 ± 1 nM
HHV-6A
  EC50: 39000 ± 21000 nM
HCMV AD169-GFP; read-out: AD169-GFP EC50, drug addition 0 d p.i., readout 7 d p.i.
  EC50: 0.7 ± 0.7 nM
HCMV AD169-GFP; read-out: AD169-GFP EC50, drug addition 1 d p.i., readout 7 d p.i.
  EC50: 3.2 ± 2.6 nM
HCMV AD169-GFP; read-out: AD169-GFP EC50, drug addition 2 d p.i., readout 7 d p.i.
  EC50: 8.3 ± 7.9 nM
HCMV AD169-GFP; read-out: AD169-GFP EC50, drug addition 3 d p.i., readout 7 d p.i.
  EC50: > 50 nM
HCMV AD169-GFP; read-out: AD169-GFP EC50, drug addition 4 d p.i., readout 7 d p.i.
  EC50: > 50 nM
RhCMV
  EC50: 3 ± 2 nM
Caco-2 cells
  CC50: > 100000 nM
VZV
  EC50: 28000 ± 9000 nM
HCMV
  EC50: 4 ± 2 nM
Vero cells
  CC50: > 100000 nM
HHV-6A-GFP; read-out: antiviral EC50, HHV-6A (HFF), Table S1, HFF
  EC50: 40 ± 20 nM
KSHV
  EC50: 300 nM
RCMV
  EC50: 20 ± 50 nM
